Data taken from PMC10189894 (Chemical Science, 2023).

Test: Autohydrolytic cascade reaction
Assay type: physicochemical
Settings: EDTA at 10–200 μM; Fig. S9E

Structure (SMILES): O=C(O)CN(CCN(CC(=O)O)CC(=O)O)CC(=O)O [EDTA]
- effect on the ACR: inhibitory effect
